# Article PMC6309937 (Pain, 2019)
# Experiments:
# Assay type in all cases: cell-based
# [1] = target: hCav3.2 (Homo sapiens, UniProt O95180); experiment: whole-cell patch clamp, % inhibition of current; conditions: read-out: 20μM
# [2] = target: rCav2.2 (Rattus norvegicus, UniProt Q02294); experiment: whole-cell patch clamp, % inhibition of current at […]; conditions: read-out: % inhibition at 20 μM
# [3] = target: hCav3.3 (Homo sapiens, UniProt Q9P0X4); experiment: whole-cell patch clamp, % inhibition of current; conditions: read-out: 20μM
# Chain of hCav3.2 (O95180 whole entry): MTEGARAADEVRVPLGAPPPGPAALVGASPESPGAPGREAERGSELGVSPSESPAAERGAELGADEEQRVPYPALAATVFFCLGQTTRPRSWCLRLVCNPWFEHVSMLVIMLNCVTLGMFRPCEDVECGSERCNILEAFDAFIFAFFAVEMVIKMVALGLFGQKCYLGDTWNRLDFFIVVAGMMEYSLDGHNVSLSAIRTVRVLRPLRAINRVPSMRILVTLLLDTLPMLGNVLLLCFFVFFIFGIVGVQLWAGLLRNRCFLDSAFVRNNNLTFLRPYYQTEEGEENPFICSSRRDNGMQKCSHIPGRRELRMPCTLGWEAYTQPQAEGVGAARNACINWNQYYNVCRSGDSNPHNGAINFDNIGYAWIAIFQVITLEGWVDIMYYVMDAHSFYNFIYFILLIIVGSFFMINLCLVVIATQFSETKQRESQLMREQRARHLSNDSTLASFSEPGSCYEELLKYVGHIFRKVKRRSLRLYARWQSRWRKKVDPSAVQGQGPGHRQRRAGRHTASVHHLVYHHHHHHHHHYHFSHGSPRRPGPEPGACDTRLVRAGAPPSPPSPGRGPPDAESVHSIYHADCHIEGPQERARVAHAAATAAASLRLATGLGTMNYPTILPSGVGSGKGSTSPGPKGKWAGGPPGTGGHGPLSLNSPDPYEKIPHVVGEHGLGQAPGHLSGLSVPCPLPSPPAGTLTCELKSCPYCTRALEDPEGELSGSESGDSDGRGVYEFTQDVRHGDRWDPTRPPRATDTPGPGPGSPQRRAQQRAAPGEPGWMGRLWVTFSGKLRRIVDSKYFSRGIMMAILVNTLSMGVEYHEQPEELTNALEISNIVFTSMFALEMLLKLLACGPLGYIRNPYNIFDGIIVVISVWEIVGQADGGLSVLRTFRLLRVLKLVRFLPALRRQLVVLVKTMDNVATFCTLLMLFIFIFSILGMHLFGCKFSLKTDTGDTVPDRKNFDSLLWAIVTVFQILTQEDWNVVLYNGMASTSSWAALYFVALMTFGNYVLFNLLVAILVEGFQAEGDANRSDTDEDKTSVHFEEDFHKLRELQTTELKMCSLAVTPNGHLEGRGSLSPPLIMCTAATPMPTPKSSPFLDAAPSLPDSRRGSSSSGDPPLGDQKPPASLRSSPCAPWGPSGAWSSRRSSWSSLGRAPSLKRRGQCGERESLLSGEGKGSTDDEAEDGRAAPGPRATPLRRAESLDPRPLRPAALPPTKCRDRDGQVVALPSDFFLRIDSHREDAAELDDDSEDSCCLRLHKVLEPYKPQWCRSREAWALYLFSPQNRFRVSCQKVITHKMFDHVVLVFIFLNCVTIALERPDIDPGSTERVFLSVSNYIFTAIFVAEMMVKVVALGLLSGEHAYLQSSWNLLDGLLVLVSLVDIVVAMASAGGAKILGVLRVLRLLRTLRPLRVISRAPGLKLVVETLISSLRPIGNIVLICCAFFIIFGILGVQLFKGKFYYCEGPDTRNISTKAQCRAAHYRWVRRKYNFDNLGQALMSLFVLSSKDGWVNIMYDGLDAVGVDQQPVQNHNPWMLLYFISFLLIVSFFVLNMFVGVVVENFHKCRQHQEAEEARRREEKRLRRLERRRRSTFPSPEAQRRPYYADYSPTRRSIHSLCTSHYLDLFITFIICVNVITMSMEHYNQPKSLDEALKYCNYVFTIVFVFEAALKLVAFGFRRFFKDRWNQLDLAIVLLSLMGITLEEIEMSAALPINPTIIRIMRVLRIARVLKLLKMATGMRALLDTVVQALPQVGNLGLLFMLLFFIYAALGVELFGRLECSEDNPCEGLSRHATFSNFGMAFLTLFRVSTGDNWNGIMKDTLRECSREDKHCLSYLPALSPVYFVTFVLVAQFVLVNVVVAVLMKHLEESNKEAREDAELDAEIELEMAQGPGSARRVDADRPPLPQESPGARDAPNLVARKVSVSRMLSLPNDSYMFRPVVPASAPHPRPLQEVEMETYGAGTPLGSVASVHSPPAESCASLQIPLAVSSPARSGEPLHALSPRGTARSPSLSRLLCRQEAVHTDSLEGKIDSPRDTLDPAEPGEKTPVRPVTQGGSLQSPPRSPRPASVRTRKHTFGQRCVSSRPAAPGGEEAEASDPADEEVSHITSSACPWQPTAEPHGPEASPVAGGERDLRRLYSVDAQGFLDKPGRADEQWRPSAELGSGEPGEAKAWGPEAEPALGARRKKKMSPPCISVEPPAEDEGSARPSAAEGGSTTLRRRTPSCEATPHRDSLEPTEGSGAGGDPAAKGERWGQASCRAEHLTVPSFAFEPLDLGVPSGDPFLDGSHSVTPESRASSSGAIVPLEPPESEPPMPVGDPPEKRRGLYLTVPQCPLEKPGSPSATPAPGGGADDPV
# Chain of rCav2.2 (Q02294 whole entry): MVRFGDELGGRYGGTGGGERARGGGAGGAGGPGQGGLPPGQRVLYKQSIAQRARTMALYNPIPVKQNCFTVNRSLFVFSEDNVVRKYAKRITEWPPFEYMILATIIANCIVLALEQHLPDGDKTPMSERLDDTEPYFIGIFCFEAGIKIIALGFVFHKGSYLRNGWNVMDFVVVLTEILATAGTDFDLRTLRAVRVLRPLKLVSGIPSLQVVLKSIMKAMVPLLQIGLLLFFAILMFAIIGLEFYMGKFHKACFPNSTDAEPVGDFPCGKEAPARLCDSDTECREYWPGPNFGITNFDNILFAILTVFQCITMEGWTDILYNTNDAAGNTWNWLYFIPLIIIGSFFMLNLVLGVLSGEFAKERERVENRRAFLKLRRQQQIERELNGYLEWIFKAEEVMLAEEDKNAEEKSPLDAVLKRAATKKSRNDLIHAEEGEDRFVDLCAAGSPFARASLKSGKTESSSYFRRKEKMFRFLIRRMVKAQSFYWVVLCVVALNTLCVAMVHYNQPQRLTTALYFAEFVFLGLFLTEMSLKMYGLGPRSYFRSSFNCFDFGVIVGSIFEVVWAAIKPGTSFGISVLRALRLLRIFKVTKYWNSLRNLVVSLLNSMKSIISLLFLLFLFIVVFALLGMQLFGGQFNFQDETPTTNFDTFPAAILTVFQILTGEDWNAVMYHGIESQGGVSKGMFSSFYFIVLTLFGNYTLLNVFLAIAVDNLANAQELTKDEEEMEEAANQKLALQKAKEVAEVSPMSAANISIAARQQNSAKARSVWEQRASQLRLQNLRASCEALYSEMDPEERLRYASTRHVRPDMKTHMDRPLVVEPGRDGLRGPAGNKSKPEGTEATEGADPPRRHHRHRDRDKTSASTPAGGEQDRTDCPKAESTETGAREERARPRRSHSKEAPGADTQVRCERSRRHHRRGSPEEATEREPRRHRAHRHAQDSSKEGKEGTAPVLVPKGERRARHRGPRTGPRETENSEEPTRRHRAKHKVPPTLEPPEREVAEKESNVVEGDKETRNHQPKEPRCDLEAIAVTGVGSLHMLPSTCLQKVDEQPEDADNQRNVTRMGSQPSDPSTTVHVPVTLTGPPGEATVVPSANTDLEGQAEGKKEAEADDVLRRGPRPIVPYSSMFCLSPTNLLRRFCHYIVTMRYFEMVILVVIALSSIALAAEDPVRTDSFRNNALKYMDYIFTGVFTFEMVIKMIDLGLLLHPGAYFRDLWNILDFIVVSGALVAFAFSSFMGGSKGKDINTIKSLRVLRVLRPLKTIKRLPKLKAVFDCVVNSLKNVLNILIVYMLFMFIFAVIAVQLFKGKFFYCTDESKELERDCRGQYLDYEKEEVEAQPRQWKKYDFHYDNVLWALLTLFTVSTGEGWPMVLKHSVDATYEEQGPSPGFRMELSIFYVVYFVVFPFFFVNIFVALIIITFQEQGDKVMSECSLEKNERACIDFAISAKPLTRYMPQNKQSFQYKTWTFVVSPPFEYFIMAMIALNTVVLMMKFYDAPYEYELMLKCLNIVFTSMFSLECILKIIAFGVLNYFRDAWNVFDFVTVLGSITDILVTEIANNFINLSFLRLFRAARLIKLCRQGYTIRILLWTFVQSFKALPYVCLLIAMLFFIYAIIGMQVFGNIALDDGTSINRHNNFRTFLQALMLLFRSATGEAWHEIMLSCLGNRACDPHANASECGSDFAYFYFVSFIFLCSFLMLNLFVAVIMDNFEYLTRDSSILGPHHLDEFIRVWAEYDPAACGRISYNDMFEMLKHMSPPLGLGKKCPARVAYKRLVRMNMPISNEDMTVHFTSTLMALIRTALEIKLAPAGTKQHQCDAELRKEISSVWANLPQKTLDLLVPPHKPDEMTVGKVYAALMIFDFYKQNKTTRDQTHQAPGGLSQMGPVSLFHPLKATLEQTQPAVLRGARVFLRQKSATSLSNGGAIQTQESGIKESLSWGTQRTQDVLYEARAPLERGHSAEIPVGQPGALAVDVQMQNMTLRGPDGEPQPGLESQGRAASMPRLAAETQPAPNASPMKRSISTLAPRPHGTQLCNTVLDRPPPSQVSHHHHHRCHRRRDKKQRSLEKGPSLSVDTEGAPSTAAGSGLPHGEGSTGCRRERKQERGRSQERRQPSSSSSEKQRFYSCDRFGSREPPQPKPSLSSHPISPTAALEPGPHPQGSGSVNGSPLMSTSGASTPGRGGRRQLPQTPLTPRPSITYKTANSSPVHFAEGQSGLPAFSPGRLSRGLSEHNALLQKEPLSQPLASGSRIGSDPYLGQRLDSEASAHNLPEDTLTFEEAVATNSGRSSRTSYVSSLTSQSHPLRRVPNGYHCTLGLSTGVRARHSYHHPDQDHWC
structure (smiles),measurement,setting,value
"C=C(C)[C@@H]1CC[C@]2(C(=O)O)CC[C@]3(C)[C@H](CC[C@@H]4[C@@]5(C)CC[C@H](O)C(C)(C)[C@@H]5CC[C@]43C)[C@@H]12 [BA, betulinic acid]",inhibition at 20 µM,[1],66.1 ± 4.6%
same,inhibition at 20 µM,[2],69.8 ± 2.5%
same,inhibition at 20 µM,[3],31.4 ± 1.8%
